From patent publication US20120071499A1, “Substituted Spiro[3H-Indole-3,6'(5'H)-[1H]Pyrrolo[1,2c]Imidazole-1',2(1H,2'H)-diones” (priority 2010, published 2012)

Target: interaction between p53 and MDM2 proteins (Homo sapiens, UniProt Q00987)
Assay: HTRF assay of inhibition of p53-MDM2 interaction (GST-MDM2 / biotinylated p53 peptide)
Description: The ability of the compounds to inhibit the interaction between p53 and MDM2 proteins was measured by an HTRF (homogeneous time-resolved fluorescence) assay in which recombinant GST-tagged MDM2 binds to a peptide that resembles the MDM2-interacting region of p53. Binding of GST-MDM2 protein and p53-peptide (biotinylated on its N-terminal end) is registered by the FRET (fluorescence resonance energy transfer) between Europium (Eu)-labeled anti-GST antibody and streptavidin-conjugated Allophycocyanin (APC).
Test is performed in black flat-bottom 384-well plates (Costar) in a total volume of 40 uL containing: 90 nM biotinylate peptide, 160 ng/ml GST-MDM2, 20 nM streptavidin-APC (PerkinElmerWallac), 2 nM Eu-labeled anti-GST-antibody (PerkinElmerWallac), 0.2% bovine serum albumin (BSA), 1 mM dithiothreitol (DTT) and 20 mM Tris-borate saline (TBS) buffer as follows: Add 10 uL of GST-MDM2 (640 ng/ml working solution) in reaction buffer to each well. […] Incubate at 37° C. for 1 h. Add 20 uL streptavidin-APC and Eu-anti-GST antibody mixture (6 nM Eu-anti-GST and 60 nM streptavidin-APC working solution) in TBS buffer with 0.2% BSA, shake at room temperature for 30 minutes and read using a TRF-capable plate reader at

interaction between p53 and MDM2 proteins, sequence (Q00987 whole entry): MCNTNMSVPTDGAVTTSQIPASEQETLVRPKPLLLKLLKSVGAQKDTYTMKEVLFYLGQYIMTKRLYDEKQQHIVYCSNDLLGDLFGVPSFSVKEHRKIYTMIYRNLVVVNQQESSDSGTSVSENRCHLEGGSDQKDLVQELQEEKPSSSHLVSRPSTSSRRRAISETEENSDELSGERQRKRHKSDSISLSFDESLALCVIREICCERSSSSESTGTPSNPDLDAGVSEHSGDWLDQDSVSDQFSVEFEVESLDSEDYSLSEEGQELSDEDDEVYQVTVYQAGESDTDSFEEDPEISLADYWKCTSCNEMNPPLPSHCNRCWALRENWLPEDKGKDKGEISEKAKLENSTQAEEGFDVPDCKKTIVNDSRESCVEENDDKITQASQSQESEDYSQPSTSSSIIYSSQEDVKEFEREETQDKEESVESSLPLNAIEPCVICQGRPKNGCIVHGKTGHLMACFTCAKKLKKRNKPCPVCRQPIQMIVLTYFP

| SMILES | IC50 [nM] |
| --- | --- |
| COc1cc(N2CN3[C@@H](CC(C)(C)C)[C@@]4(C(=O)N(CO)c5cc(Cl)ccc54)[C@@H](c4cccc(Cl)c4F)[C@@H]3C2=O)ccc1C(=O)O (racemic) [Example 16, Rac 4-((3R,5′S,7′S,7a′R)-6-chloro-7′-(3-chloro-2-fluorophenyl)-1-(hydroxymethyl)-5′-neopentyl-1′,2-dioxo-7′,7a′-dihydrospiro[indoline-3,6′-pyrrolo[1,2-c]imidazole]-2′(1′H,3′H,5′H)-yl)-2-methoxybenzoic acid] | 25 |
| CC(C)(C)C[C@H]1N2CN(c3ccc(C(=O)O)cc3)C(=O)[C@@H]2[C@@H](c2cccc(Cl)c2F)[C@@]12C(=O)Nc1cc(Cl)ccc12 [Example 30, chiral 4-((3S,5′R,7′R,7a′S)-6-chloro-7′-(3-chloro-2-fluorophenyl)-5′-neopentyl-1′,2-dioxo-7′,7a′-dihydrospiro[indoline-3,6′-pyrrolo[1,2-c]imidazole]-2′(1′H,3′H,5′H)-yl)benzoic acid] | 128 |
| COc1cc(N2CN3[C@@H](CC(C)(C)C)[C@@]4(C(=O)Nc5cc(Cl)ccc54)[C@@H](c4cccc(Cl)c4F)[C@@H]3C2=O)ccc1C(N)=O (single isomer, unassigned) [Example 25] | 4 |
| CC(C)(C)CC1N2CN(CC(=O)O)C(=O)C2C(c2cccc(Cl)c2F)C12C(=O)Nc1cc(Cl)ccc12 (racemic) [Example 37, rac of 2-((3R,5′S,7′S,7a′R)-6-chloro-7′-(3-chloro-2-fluorophenyl)-5′-neopentyl-1′,2-dioxo-7′,7a′-dihydrospiro[indoline-3,6′-pyrrolo[1,2-c]imidazole]-2′(1′H,3′H,5′H)-yl)acetic acid] | 13 |
| COc1cc(N2CN3[C@@H](CC(C)(C)C)[C@@]4(C(=O)N(CO)c5cc(Cl)ccc54)[C@@H](c4cccc(Cl)c4F)[C@@H]3C2=O)ccc1C(N)=O [Example 31] | 12 |
| COc1cc(N2CN3[C@@H](CC(C)(C)C)[C@@]4(C(=O)Nc5cc(Cl)ccc54)[C@@H](c4cccc(Cl)c4F)[C@@H]3C2=O)ccc1C(=O)O (racemic) [Example 18, Rac 4-((3R,5′S,7′S,7a′R)-6-chloro-7′-(3-chloro-2-fluorophenyl)-5′-neopentyl-1′,2-dioxo-7′,7a′-dihydrospiro[indoline-3,6′-pyrrolo[1,2-c]imidazole]-2′(1′H,3′H,5′H)-yl) 2-methoxybenzoic acid] | 7 |
| COc1cc(C(N)=O)ccc1N1CN2[C@@H](CC(C)(C)C)[C@@]3(C(=O)Nc4cc(Cl)ccc43)[C@@H](c3cccc(Cl)c3F)[C@@H]2C1=O [Example 22, chiral 4-((3R,5′S,7′S,7a′R)-6-chloro-7′-(3-chloro-2-fluorophenyl)-5′-neopentyl-1′,2-dioxo-7′,7a′-dihydrospiro[indoline-3,6′-pyrrolo[1,2-c]imidazole]-2′(1′H,3′H,5′H)-yl)-3-methoxybenzamide] | 5 |
| COc1cc(C(=O)O)ccc1N1CN2[C@@H](CC(C)(C)C)[C@@]3(C(=O)Nc4cc(Cl)ccc43)[C@@H](c3cccc(Cl)c3F)[C@@H]2C1=O [Example 21, chiral 4-((3S,5′R,7′R,7a′S)-6-chloro-7′-(3-chloro-2-fluorophenyl)-5′-neopentyl-1′,2-dioxo-7′,7a′-dihydrospiro[indoline-3,6′-pyrrolo[1,2-c]imidazole]-2′(1′H,3′H,5′H)-yl)-3-methoxybenzoic acid] | 6 |
